Test results as given in patent publication US20140135310A1, “SULPHONAMIDE DERIVATIVES OF ALICYCLIC AMINES FOR THE TREATMENT OF CENTRAL NERVOUS SYSTEM DISEASES” (Adamed Sp. z o.o., priority 2011, published 2014).

Assays:
[1] = target: dopaminergic receptors D2 (Homo sapiens, UniProt P14416); experiment: Radioligand binding assay, dopaminergic D2 receptors; settings: binding assay, test compound 1×10^−6 M
Text: (§1) The specific ligand binding to the receptors is defined as the difference between the total binding and the non-specific binding determined in the presence of the excess of unlabelled ligand.
(§2) The results are expressed as a percent of control specific binding ((measured specific binding/control specific binding)×100) and as a percent inhibition of control specific binding (100−((measured specific binding/control specific binding)×100)) obtained in the presence of the test compounds. The specific ligand binding to the receptors is defined as the difference between the total binding and the nonspecific binding determined in the presence of an excess of unlabelled ligand. Scintillation counting was the method of detection of ligand binding. The IC50 values (concentration causing a half-maximal inhibition of control specific binding) were determined by non-linear regression analysis of the competition curves generated with mean replicate values using Hill equation curve fitting (Y=D+[(A−D)/(1+(C/C50)nH)], where Y=specific binding, D=minimum specific binding, A=maximum specific binding, C=compound concentration, C50=IC50, and nH=slope factor). This analysis was performed using a software developed at Cerep (Hill software) and validated by comparison with data generated by the commercial software SigmaPlot® 4.0 for Windows® (© 1997 by SPSS Inc.). The inhibition constants (Ki) were calculated using the Cheng Prusoff equation (Ki=IC50/(1+(L/KD)), where L=concentration of radioligand in the assay, and KD=affinity of the radioligand for the receptor). A scatchard plot was used to determine the Kd.
(§3) Experimental conditions for tests are given in Table 1, the results of tests for representative compounds are given in Tables 2a and 2b (receptors D2 and D3) and in Table 3 (receptors D4).

[2] = target: dopaminergic receptors D3 (Homo sapiens, UniProt P35462); experiment: Radioligand binding assay, dopaminergic D3 receptors; settings: test compound 1×10^−6 M
Sequence of dopaminergic receptors D3 (P35462 whole entry): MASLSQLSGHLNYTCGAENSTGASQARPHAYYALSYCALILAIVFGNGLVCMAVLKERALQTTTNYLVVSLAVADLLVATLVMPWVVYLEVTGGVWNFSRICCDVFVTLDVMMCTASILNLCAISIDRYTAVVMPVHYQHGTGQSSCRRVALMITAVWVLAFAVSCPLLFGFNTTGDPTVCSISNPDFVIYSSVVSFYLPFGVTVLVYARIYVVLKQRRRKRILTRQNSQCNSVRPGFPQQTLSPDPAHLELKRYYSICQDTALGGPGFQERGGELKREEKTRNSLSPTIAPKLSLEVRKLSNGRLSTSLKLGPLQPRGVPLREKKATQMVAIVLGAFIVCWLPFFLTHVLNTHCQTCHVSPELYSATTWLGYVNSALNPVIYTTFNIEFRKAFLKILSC
Text: as §1, §2, §3

[3] = target: T1, 5-HT1A receptor (rat hippocampus) (Rattus norvegicus, UniProt P19327); experiment: Radioligand binding assay, serotoninergic 5-HT1A receptors; settings: binding assay result in %, Table 5a;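 also: test compound at 1 µM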
T1 construct: hippocampus; from tissue; host or cells: rat hippocampus
T1 sequence (P19327 1-422): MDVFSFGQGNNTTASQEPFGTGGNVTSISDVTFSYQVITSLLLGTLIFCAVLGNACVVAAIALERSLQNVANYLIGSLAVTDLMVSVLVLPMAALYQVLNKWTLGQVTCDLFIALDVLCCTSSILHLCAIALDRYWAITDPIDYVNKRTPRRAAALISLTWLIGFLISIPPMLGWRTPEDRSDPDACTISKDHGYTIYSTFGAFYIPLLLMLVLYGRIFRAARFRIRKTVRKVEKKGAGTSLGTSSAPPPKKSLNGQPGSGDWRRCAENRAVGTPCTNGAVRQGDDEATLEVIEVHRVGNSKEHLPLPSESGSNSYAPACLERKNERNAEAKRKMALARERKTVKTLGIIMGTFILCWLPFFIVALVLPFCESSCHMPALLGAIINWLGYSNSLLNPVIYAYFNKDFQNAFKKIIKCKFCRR
Text: as §1, §2
(§4) Experimental conditions for tests are given in Table 4, and results of tests for representative compounds of the invention are given in Table 5a and 5b (receptors 5-HT1A, 5-HT2A, 5-HT6 and 5-HT7) and in Table 6 (receptors 5-HT2C).

5-HT2A receptor = target: T2, 5-HT2A receptor (Homo sapiens, UniProt P28223); experiment: Radioligand binding assay, serotoninergic 5-HT2A receptors; settings: binding assay result in %, Table 5a
T2 construct: purchased PerkinElmer
T2 sequence (P28223 whole entry): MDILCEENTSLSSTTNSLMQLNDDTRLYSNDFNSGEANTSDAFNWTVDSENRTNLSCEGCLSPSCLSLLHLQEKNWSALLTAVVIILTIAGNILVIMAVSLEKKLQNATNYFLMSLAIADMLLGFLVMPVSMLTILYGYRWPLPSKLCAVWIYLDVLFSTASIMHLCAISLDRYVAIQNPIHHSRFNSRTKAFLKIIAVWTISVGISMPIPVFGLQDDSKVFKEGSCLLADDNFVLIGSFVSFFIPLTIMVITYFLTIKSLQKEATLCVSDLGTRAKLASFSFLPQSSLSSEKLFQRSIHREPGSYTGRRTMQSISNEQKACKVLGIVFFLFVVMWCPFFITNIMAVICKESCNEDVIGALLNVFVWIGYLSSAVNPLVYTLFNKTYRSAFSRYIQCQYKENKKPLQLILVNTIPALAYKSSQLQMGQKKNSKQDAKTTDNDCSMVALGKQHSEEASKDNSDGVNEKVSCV
Text: as §1, §2
5-HT2A: Bryan L. Roth. Assay Protocol Book. University of North Carolina At Chapel Hill. National Institute of Mental Health. Psychoactive Drug Screening Program. Available on-line at 31 Aug. 2008: http://pdsp.med.unc.edu/UNC-CH%20Protocol%20Book.pdf

5-HT6 receptor = target: T3, 5-HT6 receptor (Homo sapiens, UniProt P50406); experiment: Radioligand binding assay, serotoninergic 5-HT6 receptors; settings: binding assay result in %, Table 5a;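 also: test compound at 1 µM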
T3 construct: purchased PerkinElmer
T3 sequence (P50406 whole entry): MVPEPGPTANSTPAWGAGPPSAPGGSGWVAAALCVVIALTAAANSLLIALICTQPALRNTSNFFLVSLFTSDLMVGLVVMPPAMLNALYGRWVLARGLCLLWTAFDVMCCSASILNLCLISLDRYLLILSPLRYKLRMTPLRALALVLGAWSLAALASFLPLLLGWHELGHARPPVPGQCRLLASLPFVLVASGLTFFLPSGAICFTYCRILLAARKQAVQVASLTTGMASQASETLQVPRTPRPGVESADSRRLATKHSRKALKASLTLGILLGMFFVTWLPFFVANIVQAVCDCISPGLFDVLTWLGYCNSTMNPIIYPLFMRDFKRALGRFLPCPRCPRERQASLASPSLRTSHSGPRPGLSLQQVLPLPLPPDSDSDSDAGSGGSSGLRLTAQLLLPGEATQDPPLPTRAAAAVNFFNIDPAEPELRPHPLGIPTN
Text: as §1, §2, §4
5-HT6: Bryan L. Roth. Assay Protocol Book. University of North Carolina At Chapel Hill. National Institute of Mental Health. Psychoactive Drug Screening Program. Available on-line at 31 Aug. 2008: http://pdsp.med.unc.edu/UNC-CH %20Protocol%20Book.pdf

5-HT7 receptor = target: T4, 5-HT7 receptor (Homo sapiens, UniProt P34969); experiment: Radioligand binding assay, serotoninergic 5-HT7 receptors; settings: binding assay result in %, Table 5a;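 also: test compound at 1 µM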
T4 construct: purchased PerkinElmer
T4 sequence (P34969 whole entry): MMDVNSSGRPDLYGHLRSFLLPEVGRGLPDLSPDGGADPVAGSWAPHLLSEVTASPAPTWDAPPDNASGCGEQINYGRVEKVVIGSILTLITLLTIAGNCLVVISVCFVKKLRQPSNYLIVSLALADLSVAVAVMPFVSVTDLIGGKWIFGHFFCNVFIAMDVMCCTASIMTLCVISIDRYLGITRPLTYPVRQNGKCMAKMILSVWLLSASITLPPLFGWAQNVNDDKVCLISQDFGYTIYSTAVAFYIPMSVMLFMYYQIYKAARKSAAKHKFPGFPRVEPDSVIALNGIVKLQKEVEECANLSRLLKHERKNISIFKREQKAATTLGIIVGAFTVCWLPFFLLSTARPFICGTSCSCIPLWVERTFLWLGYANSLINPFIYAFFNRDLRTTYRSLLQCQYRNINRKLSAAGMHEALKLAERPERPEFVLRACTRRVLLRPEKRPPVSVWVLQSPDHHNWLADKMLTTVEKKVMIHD
Text: as §1, §2, §4
5-HT7: Bryan L. Roth. Assay Protocol Book. University of North Carolina At Chapel Hill. National Institute of Mental Health. Psychoactive Drug Screening Program. Available on-line at 31 Aug. 2008: http://pdsp.med.unc.edu/UNC-CH %20Protocol%20Book.pdf

[4] = target: T5, serotonin transporter (SERT) (Homo sapiens, UniProt P31645); experiment: Radioligand binding assay, serotonin transporter (SERT); settings: binding assay, test compound 1×10^−6 M
T5 construct: expressed in transfected cells; host or cells: CHO cells
T5 sequence (P31645 whole entry): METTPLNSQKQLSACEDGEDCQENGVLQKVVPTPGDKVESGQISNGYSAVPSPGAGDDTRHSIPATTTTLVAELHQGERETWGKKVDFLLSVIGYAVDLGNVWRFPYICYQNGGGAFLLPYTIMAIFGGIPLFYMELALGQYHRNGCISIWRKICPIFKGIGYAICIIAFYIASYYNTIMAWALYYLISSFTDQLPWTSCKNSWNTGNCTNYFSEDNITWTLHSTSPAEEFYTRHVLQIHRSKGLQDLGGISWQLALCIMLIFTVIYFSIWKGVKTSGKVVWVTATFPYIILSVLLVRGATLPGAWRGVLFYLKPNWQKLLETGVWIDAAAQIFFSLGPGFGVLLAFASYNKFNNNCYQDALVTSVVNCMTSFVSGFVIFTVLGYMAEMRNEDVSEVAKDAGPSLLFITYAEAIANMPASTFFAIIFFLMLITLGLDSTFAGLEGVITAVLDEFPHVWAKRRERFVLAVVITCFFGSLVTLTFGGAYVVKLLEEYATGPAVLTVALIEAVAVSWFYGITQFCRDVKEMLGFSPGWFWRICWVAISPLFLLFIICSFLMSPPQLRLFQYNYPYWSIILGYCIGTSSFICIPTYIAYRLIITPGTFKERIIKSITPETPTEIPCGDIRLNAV
Text: as §1, §2
Experimental conditions for tests are given in Table 12, and results of tests for representative compounds are given in Tables 13a and 13b.

Sequence of dopaminergic receptors D2 (P14416 whole entry): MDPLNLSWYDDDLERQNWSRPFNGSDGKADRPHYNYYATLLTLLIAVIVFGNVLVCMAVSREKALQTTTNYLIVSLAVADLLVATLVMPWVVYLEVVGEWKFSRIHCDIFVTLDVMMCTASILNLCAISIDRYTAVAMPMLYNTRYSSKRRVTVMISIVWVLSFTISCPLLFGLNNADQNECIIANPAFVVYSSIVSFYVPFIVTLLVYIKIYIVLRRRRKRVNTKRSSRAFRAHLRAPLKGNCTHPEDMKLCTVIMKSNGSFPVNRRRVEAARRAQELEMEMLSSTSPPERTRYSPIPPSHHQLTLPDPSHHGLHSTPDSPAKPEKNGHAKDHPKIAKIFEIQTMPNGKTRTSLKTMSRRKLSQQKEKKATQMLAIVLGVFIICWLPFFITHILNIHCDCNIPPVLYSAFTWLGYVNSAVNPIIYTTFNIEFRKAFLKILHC

| Molecule | inhibition at 1 µM [1] | inhibition at 1 µM [2] | inhibition at 1 µM [3] | inhibition at 1 µM (5-HT2A receptor) | inhibition at 1 µM (5-HT6 receptor) | inhibition at 1 µM (5-HT7 receptor) | inhibition at 1 µM [4] | D2 [%] [1] | D3 [%] [2] | 5-HT1A [%] [3] | 5-HT2A [%] (5-HT2A receptor) | 5-HT6 [%] (5-HT6 receptor) | 5-HT7 [%] (5-HT7 receptor) | SERT [%] [4] |
| --- | --- | --- | --- | --- | --- | --- | --- | --- | --- | --- | --- | --- | --- | --- |
| O=S(=O)(NCC1CCN(CCCc2noc3cc(F)ccc23)C1)c1ccc(F)c(Cl)c1 (stereo not drawn) [Compound 263, 3-Chloro-4-fluoro-N-[[1-[3-(6-fluoro-1,2-benzoxazol-3-yl)propyl]pyrrolidin-3-yl]methyl]benzenesulphonamide] | 59% | 71% | 19% | 97% | 85% | 92% | 11% |  |  |  |  |  |  |  |
| CC(C)(C)c1ccc(S(=O)(=O)NCC2CN(CCCc3noc4cc(F)ccc34)C2)cc1 [Compound 141, 4-tert-Butyl-N-[[1-[3-(6-fluoro-1,2-benzoxazol-3-yl)propyl]azetidin-3-yl]methyl]benzenesulphonamide] | 74% | 58% | 9% | 85% | 92% | 80% | -10% |  |  |  |  |  |  |  |
| CC(C)(C)c1ccc(S(=O)(=O)NC2CCN(CCCc3noc4cc(F)ccc34)CC2)cc1 [Compound 328, 4-tert-Butyl-N-[1-[3-(6-fluoro-1,2-benzoxazol-3-yl)propyl]-4-piperidyl]benzenesulphonamide] | 64% | 40% | 49% | 96% | 94% | 90% | 25% |  |  |  |  |  |  |  |
| O=S(=O)(NCC1CCN(CCCc2noc3cc(F)ccc23)C1)c1csc2ccccc12 (stereo not drawn) [Compound 261, N-[[1-[3-(6-Fluoro-1,2-benzoxazol-3-yl)propyl]pyrrolidin-3-yl]methyl]-benzothiophene-3-sulphonamide] | 88% | 65% | 78% | 101% | 97% | 104% | 3% |  |  |  |  |  |  |  |
| O=S(=O)(NCC1CCN(CCCc2noc3cc(F)ccc23)C1)c1ccc2c(c1)OCO2 (stereo not drawn) [Compound 235, N-[[1-[3-(6-Fluoro-1,2-benzoxazol-3-yl)propyl]pyrrolidin-3-yl]methyl]-1,3-benzodioxole-5-sulphonamide] | 31% | 41% | 14% | 91% | 62% | 81% | 11% |  |  |  |  |  |  |  |
| O=S(=O)(NCC1CN(CCCc2noc3cc(F)ccc23)C1)c1cccc(Cl)c1 [Compound 137, 3-Chloro-N-[[1-[3-(6-fluoro-1,2-benzoxazol-3-yl)propyl]azetidin-3-yl]methyl]benzenesulphonamide] | 76% | 50% | 14% | 62% | 14% | 82% | -5% |  |  |  |  |  |  |  |
| CCCc1ccc(S(=O)(=O)NCC2CN(CCCc3noc4cc(F)ccc34)C2)cc1 [Compound 157, N-[[1-[3-(6-Fluoro-1,2-benzoxazol-3-yl)propyl]azetidin-3-yl]methyl]-4-propyl-benzenesulphonamide] | 81% | 72% | 61% | 95% | 80% | 93% | 25% |  |  |  |  |  |  |  |
| O=S(=O)(NCC1CCN(CCCc2noc3cc(F)ccc23)C1)c1ccc(Cl)cc1 (stereo not drawn) [Compound 242, 4-Chloro-N-[[1-[3-(6-fluoro-1,2-benzoxazol-3-yl)propyl]pyrrolidin-3-yl]methyl]benzenesulphonamide] | 55% | 71% | 11% | 99% | 60% | 83% | 37% |  |  |  |  |  |  |  |
| 4-Fluoro-N-[[1-[3-(6-fluoro-1,2-benzoxazol-3-yl)propyl]azetidin-3-yl]methyl]benzenesulphonamide [Compound 147] |  |  |  |  |  |  |  | 88% | 74% | 60% | 95% | 86% | 89% | 24% |
| O=S(=O)(NCC1CCN(CCCc2noc3cc(F)ccc23)C1)c1cc2ccccc2o1 (stereo not drawn) [Compound 257, N-[[1-[3-(6-Fluoro-1,2-benzoxazol-3-yl)propyl]pyrrolidin-3-yl]methyl]-benzofuran-2-sulphonamide] | 92% | 62% | 87% | 100% | 94% | 88% | 20% |  |  |  |  |  |  |  |
| N-[[1-[3-(6-Fluoro-1,2-benzoxazol-3-yl)propyl]pyrrolidin-3-yl]methyl]-1-methyl-indole-5-sulphonamide [Compound 258] |  |  |  |  |  |  |  | 92% | 43% | 64% | 98% | 89% | 78% | 25% |
| O=S(=O)(NCC1CN(CCCc2noc3cc(F)ccc23)C1)c1cc2ccccc2s1 [Compound 153, N-[[1-[3-(6-Fluoro-1,2-benzoxazol-3-yl)propyl]azetidin-3-yl]methyl]-benzothiophene-2-sulphonamide] | 82% | 61% | 55% | 96% | 80% | 86% |  |  |  |  |  |  |  | 21% |
| O=S(=O)(NC1CCN(CCCc2noc3cc(F)ccc23)C1)c1ccc(Br)cc1 (stereo not drawn) [Compound 10, 4-Bromo-N-[1-[3-(6-fluoro-1,2-benzoxazol-3-yl)propyl]pyrrolidin-3-yl]benzenesulphonamide] | 99% | 49% | 20% | 96% | 85% | 86% | -2% |  |  |  |  |  |  |  |
| O=S(=O)(NCC1CCN(CCCc2noc3cc(F)ccc23)C1)c1ccc2c(c1)CCO2 (stereo not drawn) [Compound 256, N-[[1-[3-(6-Fluoro-1,2-benzoxazol-3-yl)propyl]pyrrolidin-3-yl]methyl]-2,3-dihydrobenzofuran-5-sulphonamide] | 37% | 25% | 29% | 87% | 74% | 92% | 40% |  |  |  |  |  |  |  |
| O=S(=O)(NCC1CN(CCCc2noc3cc(F)ccc23)C1)c1ccc(Cl)cc1 [Compound 136, 4-Chloro-N-[[1-[3-(6-fluoro-1,2-benzoxazol-3-yl)propyl]azetidin-3-yl]methyl]benzenesulphonamide] | 62% | 57% | 35% | 82% | 72% | 80% | 9% |  |  |  |  |  |  |  |
